# According to patent US20140134135A1, “METHODS AND COMPOSITIONS FOR PRESERVING LEAN BODY MASS DURING WEIGHT LOSS” (NESTEC SA, priority 2011, published 2014):
# Assay: Four-month weight loss study with oral OEA in the diet; body weight and body composition by DEXA
# Type: in vivo, dogs (adult Labradors)
# Text: The physiological effects of regular oral OEA administration were investigated. OEA was provided as a supplement to dogs for four months to study the effect on body weight loss and body composition. Seventeen adult Labradors participated in the study. Males with greater than 22% body fat and females with greater than 26% body fat were selected. Based on maintenance energy requirements (MER), body weight and percentage of body fat, the dogs were randomly assigned into two groups. The control group (N=9) received a standard dry adult dog food (the control diet without any OEA). The test group (N=8) received the selected dose of OEA incorporated into the standard diet. The dogs were fed 25% less than their MER for 3 months and an additional 15% less for the next month. Body weight was recorded weekly and dual X-ray absorptiometry (DEXA) scans were performed at baseline and every month.
# [1] = dogs fed OEA containing diet, calorie restricted, four months, chronic oral
# [2] = dogs fed a weight loss diet with OEA
smiles,measurement,setting,value
"CCCCCCCC/C=C\CCCCCCCC(=O)NCCO [OEA, oleoylethanolamide]",Fat Loss (g/kg body weight loss),[1],561 g/kg body weight loss
same,Lean Loss (g/kg body weight loss),[1],469 g/kg body weight loss
same,body fat loss versus weight loss diet without OEA (in words),[2],more loss in body fat
same,lean body mass loss versus weight loss diet without OEA (in words),[2],reduced loss of lean body mass
same,"less fat lost by dogs fed the control diet than by dogs fed the OEA containing diet, for every kilogram of body weight loss","end of the four month study, control diet versus OEA diet",52%
same,"less lean body mass lost than dogs fed the control diet, for every kilogram of body weight loss","end of the four month study, versus control diet",20%
same,change in body fat,"end of the four month study, control diet −0.3%",−1.8%
same,change in lean body mass,"end of the four month study, control diet −1432.2 g",-1166.6 g
